Results from paper PMC6944674, “Comparison of the Hepatotoxic Potential of Two Treatments for Autosomal-Dominant Polycystic Kidney DiseaseUsing Quantitative Systems Toxicology Modeling” (Pharmaceutical Research, 2020).
Where two headings read alike, the source gives them in different places.

Key:
human MRP4 = target: T1, human MRP4 (Homo sapiens, UniProt O15439); assay: MRP4 vesicular transport inhibition assay (E217βG, HEK-293 cell membrane vesicles); assay type: biochemical
T1 construct: host or cells: HEK-293 cell membrane vesicles
T1 sequence (O15439 1-1325): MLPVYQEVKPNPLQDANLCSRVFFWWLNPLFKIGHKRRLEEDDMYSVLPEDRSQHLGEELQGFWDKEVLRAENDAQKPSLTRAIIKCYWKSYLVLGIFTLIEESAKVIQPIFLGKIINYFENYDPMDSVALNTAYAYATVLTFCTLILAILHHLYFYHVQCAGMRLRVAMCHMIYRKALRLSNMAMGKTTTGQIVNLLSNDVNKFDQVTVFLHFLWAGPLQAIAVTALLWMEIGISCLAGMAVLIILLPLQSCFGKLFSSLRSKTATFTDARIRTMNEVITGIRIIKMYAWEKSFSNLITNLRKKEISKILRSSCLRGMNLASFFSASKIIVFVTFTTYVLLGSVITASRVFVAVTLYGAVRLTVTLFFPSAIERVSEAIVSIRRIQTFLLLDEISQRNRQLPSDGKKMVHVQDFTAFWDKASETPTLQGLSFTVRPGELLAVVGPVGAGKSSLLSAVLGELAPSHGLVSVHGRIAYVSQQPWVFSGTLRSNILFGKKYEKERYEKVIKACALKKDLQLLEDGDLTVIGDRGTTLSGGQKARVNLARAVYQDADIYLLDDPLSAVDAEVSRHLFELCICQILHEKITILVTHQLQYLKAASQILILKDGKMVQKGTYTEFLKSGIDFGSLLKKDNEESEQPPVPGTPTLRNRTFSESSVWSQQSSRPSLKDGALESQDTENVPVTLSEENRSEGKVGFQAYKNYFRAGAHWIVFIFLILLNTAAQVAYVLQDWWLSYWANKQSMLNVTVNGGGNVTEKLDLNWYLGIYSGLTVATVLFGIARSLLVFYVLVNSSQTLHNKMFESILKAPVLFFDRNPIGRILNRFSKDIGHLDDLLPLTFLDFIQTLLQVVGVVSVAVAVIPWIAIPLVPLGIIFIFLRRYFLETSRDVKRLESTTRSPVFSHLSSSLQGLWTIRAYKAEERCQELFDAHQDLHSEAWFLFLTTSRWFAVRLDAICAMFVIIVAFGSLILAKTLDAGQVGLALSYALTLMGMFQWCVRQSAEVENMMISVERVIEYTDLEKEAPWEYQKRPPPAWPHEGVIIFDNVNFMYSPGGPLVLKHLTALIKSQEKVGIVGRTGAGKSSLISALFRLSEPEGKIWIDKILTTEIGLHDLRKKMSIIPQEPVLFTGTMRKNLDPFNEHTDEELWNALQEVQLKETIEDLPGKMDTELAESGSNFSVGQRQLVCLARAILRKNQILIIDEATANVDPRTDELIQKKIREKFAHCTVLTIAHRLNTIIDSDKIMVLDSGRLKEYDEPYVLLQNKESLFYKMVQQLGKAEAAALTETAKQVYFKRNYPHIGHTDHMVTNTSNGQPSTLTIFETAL
Method: The functional impact of lixivaptan, its three metabolites and tolvaptan on the human ABC (efflux) transporters BSEP and MRP3 and MRP4 was assessed for this project using in vitro vesicular transport inhibition assays. The inhibition of the human SLC (uptake) transporter NTCP was assessed using CHO cells stably expressing human NTCP. The concentration ranges used for the five test articles was determined based on the solubility of each compound in the assay solution. All transporter inhibition assays were conducted in triplicate by Solvo Biotechnology (Szeged, Hungary).
Figure B2. […] See Appendix A for more details.

HepG2 cells [1] = assay: ROS formation by DHE fluorescence (high-content imaging); assay type: cell-based; details: 24 hour incubation
Method: To assess the potential for lixivaptan and its metabolites to induce oxidative stress, assays to measure formation of reactive oxygen species (ROS) were conducted by Cyprotex and overseen by the authors. HepG2 cells were cultured in triplicate in the presence of each test article for 1 or 24 hours; the range of concentrations used for each test article is listed in Table B1. ROS formation was assayed by DHE fluorescence. Two independent studies in triplicate were conducted on HepG2 cells.

[2] = Intracellular concentration by LC/MS/MS in HepG2 cultures parallel to Seahorse assay; assay type: in vitro ADME; details: human, HepG2 cells, Seahorse medium
Method: (§1) The concentration of test compound at the site of action (i.e. hepatocytes) has been identified as highly influential in the selection of parameter values (7). To assess intracellular concentrations of the five test articles, identical HepG2 cultures were established in parallel and cell lysate concentrations of the test articles were measured by LC/MS/MS analysis. Intracellular concentrations of the test articles were calculated by correcting for cell lysate volume (100 µL) and the volume of HepG2 cells in each well, which was calculated by multiplying cell count per well by cellular volume per cell (2.85 pl/cell). One independent study in duplicate was conducted to assess intracellular concentrations of the test articles for Seahorse studies.

HepG2 cells [3] = assay: as above; assay type: in vitro ADME; details: Seahorse medium; for CIntracellular Fraction: cell lysate; for CHepatocyte: corrected for lysate and HepG2 cell volume
Method: as §1

[4] = cited from earlier work
[5] = cited from earlier work; remark: listed apart in the source
[6] = parameters: method as in proprietary data not shown; details: ref proprietary data not shown, cited from earlier work
[7] = End Stage Renal Disease patients, ref personal communication, proprietary data not shown

inhibition of MRP4-mediated probe substrate accumulation (human MRP4): inhibited
Kp at 0.5 µM ([2]; dose 0.5 µM): 23.2
Kp at 1 µM ([2]; dose 1 µM): 14.3
Kp at 5 µM ([2]; dose 5 µM): 8.02
Kp at 10 µM ([2]; dose 10 µM): 6.35
Kp at 25 µM ([2]; dose 25 µM): 4.52
Kp at 40 µM ([2]; dose 40 µM): 4.62
CIntracellular Fraction (HepG2 cells [3]; dose 0.1 µM): 0 µM
CHepatocyte (HepG2 cells [3]; dose 0.1 µM): 0 µM
CIntracellular Fraction (HepG2 cells [3]; dose 0.5 µM): 0.00582 µM
CHepatocyte (HepG2 cells [3]; dose 0.5 µM): 11.61 µM
CIntracellular Fraction (HepG2 cells [3]; dose 1 µM): 0.00738 µM
CHepatocyte (HepG2 cells [3]; dose 1 µM): 14.34 µM
CIntracellular Fraction (HepG2 cells [3]; dose 5 µM): 0.0193 µM
CHepatocyte (HepG2 cells [3]; dose 5 µM): 40.10 µM
CIntracellular Fraction (HepG2 cells [3]; dose 10 µM): 0.0307 µM
CHepatocyte (HepG2 cells [3]; dose 10 µM): 63.51 µM
CIntracellular Fraction (HepG2 cells [3]; dose 25 µM): 0.0525 µM
CHepatocyte (HepG2 cells [3]; dose 25 µM): 112.99 µM
CIntracellular Fraction (HepG2 cells [3]; dose 40 µM): 0.0823 µM
CHepatocyte (HepG2 cells [3]; dose 40 µM): 184.62 µM
SMILES: Cc1ccc(F)cc1C(=O)Nc1ccc(C(=O)N2Cc3cccn3Cc3ccccc32)c(Cl)c1 [Lixivaptan, lixivaptan]
induction of oxidative stress in HepG2 cells (HepG2 cells [1]): evidence for induction of oxidative stress
Clinical ALT >3X ULN ([4]; 100 mg BID, 60 days, hyponatremia protocol, ref study CK-LX3401 (not shown)): On treatment similar to placebo**
Clinical ALT >3X ULN ([4]; 400 mg BID, 7 days, ref clinical trial CK-LX1403): no individuals out of 67 showed elevated ALT
time to steady-state concentration ([5]; 100 mg BID, clinical, ref proprietary data not shown): 6 days
recovery in single-dose mass balance study ([5]; 100 mg single dose, after 7 days, ref clinical study 0892A1-109-US): 84%
decrease of exposure (AUC) in renal failure patients vs subjects with normal renal function [5, 7]: approximately 30%
decrease of peak concentration (Cmax) in renal failure patients vs subjects with normal renal function [5, 7]: approximately 30%
Cmax ([5]; after 7 days of 100 mg BID, ref clinical study CK-LX1403 (data not shown)): 2000 nM
plasma fraction unbound ([6]; human): less than 1%
blood:plasma ratio [6]: 0.6
